Experimental findings from patent publication US11191790B2, “Biologically pure Faecalibacterium butyricigenerans strain, composition including the same and method for treating ulcerative colitis” (BGI SHENZHEN, priority 2016, dated 2021) are described below.

The assay concerns UC modeled mice (DSS-induced ulcerative colitis). Kind of assay: In vivo experiment in DSS-induced UC modeled mice. Also noted: species or system C57bl/6 mice. As for the experimental part:
With administration of AF52-21, saline or a positive drug, the therapeutic effect of Faecalibacterium butyricigenerans AF52-21 on the UC modeled mice was evaluated by observing body weight, mortality, fecal traits, occult/visual blood in stool, colon length, disease and activity index (DAI) and pathological parameters.
8 week-old C57bl/6 mice weighted 21 g±1 g in SPF grade were adaptively fed for one week. Then, 2% sodium dextran sulfate (DSS) was administered to the mice for 7 days to induce the UC modeled mice.
A total of 48 mice were randomly divided into four groups, with 12 mice in each group. The groups were as follows:
Group I: control group—normal mice without DSS induction;
Group II: UC modeled group—saline gavage after DSS induction;
Group III: UC treatment group—AF52-21 treatment after DSS induction;
Group IV: UC treatment group—positive drug (salicylazosulfapyridine, SASP) treatment after DSS induction.
UC modeled group: gavage with saline (0.85% NaCl).
AF52-21-treated group: administration with cultured AF52-21 in a stationary phase in a bacterial concentration of about 10^8 cfu/ml.
SASP-treated group: administration with 0.02 g/mL of aqueous SASP solution.
The mice in all groups were daily observed for food intake, spontaneous activities, body weight, fecal traits and occult/visual blood in stool. After DSS induction for 7 days, mice were treated according to the administration scheme in 4.3 for 2 weeks by daily gavage of 200 μL/mouse. After 14 days, mice in all groups were sacrificed for blood collection, colon collection for photographing and length-measuring, and collection of other organs for weighing. The colon was then stored in paraformaldehyde in a […] refrigerator.
The mice were given individual scores according to body weight, fecal traits and occult/visual blood in stool. The scoring criteria are as follows (Table 4).
The DAI is scored as the sum of the scores for body weight, fecal traits and occult blood/visual blood in stool.

Setting [1] is: daily gavage 200 μL/mouse, AF52-21 about 10^8 cfu/ml, SASP 0.02 g/mL.
Setting [2] is: ratio of organ weight to body weight, x ± SD, after 14 days of treatment.
[3] abbreviates: sum of scores for body weight, fecal traits, occult/visual blood in stool, daily gavage 200 μL/mouse.

Consider `O=C(O)c1cc(/N=N/c2ccc(S(=O)(=O)Nc3ccccn3)cc2)ccc1O` [SASP, salicylazosulfapyridine], for which, for the setting “12 mice in each group, 5 mice died in the UC modeled group”, the “Mice died during the entire experiment” value was found to be 2 mice. Besides, the “Body weight, DSS induction at Day 7” value (UC modeled mice, after 7 days 2% DSS, before treatment) came to 28.52 ± 3.12 g. The “Body weight, DSS induction at Day 0” value (UC modeled mice, before DSS induction and before treatment (baseline of the group)) came to 30.12 ± 2.25 g. In addition, the colon length (after 14 days of treatment, UC modeled group 6.11 ± 0.90) was 6.54 ± 0.71. In addition, under setting [1], the “Body weight, Treatment at Day 1” value came to 26.51 ± 3.31 g; the “Body weight, Treatment at Day 7” value is 27.60 ± 3.46 g; the “Body weight, Treatment at Day 14” value is listed as 29.98 ± 3.32 g. For the setting “decrease rate of body weight, UC modeled group 8 ± 0.8% decrease”, the Weight gain/decrease rate is recorded as 0.4 ± 0.2% (decrease rate). Moreover, the Colon histopathology entry (histological sections of mouse intestinal mucosa, FIG. 5, compared with the UC modeled group) was “reduced thickness of colon wall; and reduced number of inflammatory cells infiltrating in submucosa”. In addition, under setting [2], the Colon index was determined as 9.88 ± 2.76 mg/g, the Kidney index turned out to be 13.24 ± 1.74 mg/g, the Liver index is 41.56 ± 6.04 mg/g and the Spleen index is given as 6.24 ± 3.71 mg/g. For the same molecule, under setting [2], the Thymus index is reported as 1.10 ± 0.39 mg/g. Besides, the “DAI score, DSS induction for 7 days” value (sum of scores for body weight, fecal traits, occult/visual blood in stool, before treatment) stood at 7.70 ± 2.85. In addition, under setting [3], the “DAI score, Treatment for 7 days” value is 5.89 ± 2.21 and the “DAI score, Treatment for 14 days” value is recorded as 3.98 ± 1.38.
